According to patent publication US5225607A, “Insecticidal ethers” (Imperial Chemical Industries PLC, priority 1985, dated 1993):

Experiments:
Assay type in all cases: in vivo
Heliothis virescens = test: whole plant or invertebrate; settings: in Gossypium hirsutum, 72 h, read-out: grading of mortality, HV
Description: (§1) The activity of the Product was determined using a variety of insect and acarine pests. The Product was used in the form of liquid preparations containing 500, 250 or 100 parts per million (ppm) by weight of the Product. The preparations were made by dissolving the Product in acetone and diluting the solutions with water containing 0.01% by weight of a wetting agent sold under the trade name "LISSAPOL" NX until the liquid preparations contained the required concentratio of the Product. "Lissapol" is a Registered Trade Mark.
(§2) The test procedure adopted with regard to each pest was basically the same and comprised supporting a number of the pests on a medium which was usually a host plant or a foodstuff on which the pests feed, and treating either or both the pests and the medium with the preparations. The mortality of the pests was then assessed at periods usually varying from one to three days after the treatment.
(§3) The results of the tests are given in Table IV for each of the Products, at the rate in parts per million given in the second column as a grading of mortality designated as A, B or C wherein A indicates 80-100% mortality or knockdown (70-100% in the case of Spodoptera exigua), B indicates 50-79% mortality or knockdown (50-69% in the case of Spodoptera exigua) and C indicates less than 50% mortality or knockdown.
(§4) In Table IV the pest organism used is designated by a letter code and the pest species, the support medium or food, and the type and duration of test is given in Table III.

Myzus persicae = test: Insecticidal test, Myzus persicae (aphids), contact; settings: 72 h, Chinese Cabbage leaf, 3 days, read-out: grading of mortality, MP
Description: as §1, §2, §3, §4

Diabrotica balteata = test: Insecticidal test, Diabrotica balteata (rootworm larvae), residual; settings: 72 h, filter paper/maize seed, 3 days, read-out: grading of mortality, DB
Description: as §1, §2, §3, §4

Tetranychus urticae = test: Insecticidal/acaricidal test, Tetranychus urticae (spider mites - adult), contact; settings: 72 h, French bean leaf, 3 days, read-out: grading of mortality, TU
Description: as §1, §2, §3, §4

Blattella germanica = test: Insecticidal test, Blattella germanica (cockroach nymphs), residual; settings: 72 h, plastic pot, 3 days, read-out: grading of mortality, BG
Description: as §1, §2, §3, §4

Musca domestica [1] = test: Insecticidal test, Musca domestica (houseflies - adults), contact; settings: 24 h, cotton wool/sugar, 1 day, read-out: grading of mortality, MD
Description: as §1, §2, §3, §4

Musca domestica [2] = test: Knockdown test, Musca domestica (houseflies - adults); settings: cotton wool/sugar, 4 hours, read-out: grading of knockdown, MD/KD
Description: as §1, §2
In the case of the species Musca domestica (housefly), additional tests to determine the knockdown effect of the compounds were performed.
as §3, §4

Nilaparvata lugens = test: Insecticidal test, Nilaparvata lugens (brown planthopper), contact; settings: 72 h, Cabbage leaf, 3 days, read-out: grading of mortality, NL
Description: as §1, §2, §3, §4

## CCOc1ccc(C(COCc2ccc(F)c(Oc3ccccc3)c2)C(F)(F)F)cc1 (centres unmarked) [Compound 33, 1,1,1-Trifluoro-2-(4-ethoxyphenyl)-3-(3-phenoxy-4-fluorobenzyloxy)propane]
Heliothis virescens
  mortality at 500 ppm: 80 to 100%
Myzus persicae
  mortality at 500 ppm: 80 to 100%
Diabrotica balteata
  mortality at 500 ppm: 80 to 100%
Tetranychus urticae
  mortality at 500 ppm: 80 to 100%
Blattella germanica
  mortality at 500 ppm: 80 to 100%
Musca domestica [1]
  mortality at 500 ppm: 80 to 100%
Musca domestica [2]
  pest or weed control at 500 ppm: 80 to 100%
Nilaparvata lugens
  mortality at 500 ppm: 80 to 100%

## CCOc1ccc(C(Cl)(COCc2cccc(Oc3ccccc3)c2)C(F)(F)F)cc1 (centres unmarked) [Compound 38, 1,1,1-trifluoro-2-chloro-2-(4-ethoxyphenyl)-3-(3-phenoxybenzyloxy)propane]
Heliothis virescens
  mortality at 100 ppm: 80 to 100%
Myzus persicae
  mortality at 100 ppm: 80 to 100%
Diabrotica balteata
  mortality at 100 ppm: < 50%
Tetranychus urticae
  mortality at 100 ppm: < 50%
Blattella germanica
  mortality at 100 ppm: 80 to 100%
Musca domestica [1]
  mortality at 100 ppm: 80 to 100%
Musca domestica [2]
  pest or weed control at 100 ppm: < 50%
Nilaparvata lugens
  mortality at 100 ppm: 50 to 79%

## CCOc1ccc(C(Cl)(COCc2cccc(Oc3ccc(Cl)cc3)c2)C(F)(F)F)cc1 (centres unmarked) [Compound 42, 1,1,1-Trifluoro-2-chloro-2-(4-ethoxyphenyl)-3-(3-(4-chlorophenoxy)benzyloxy)propane]
Heliothis virescens
  mortality at 250 ppm: 80 to 100%
Myzus persicae
  mortality at 250 ppm: 80 to 100%
Diabrotica balteata
  mortality at 250 ppm: 50 to 79%
Tetranychus urticae
  mortality at 250 ppm: < 50%
Blattella germanica
  mortality at 250 ppm: 80 to 100%
Musca domestica [1]
  mortality at 250 ppm: 80 to 100%
Musca domestica [2]
  pest or weed control at 250 ppm: 80 to 100%
Nilaparvata lugens
  mortality at 250 ppm: 80 to 100%

## CCOc1ccc(C(Cl)(COCc2ccc(F)c(Oc3ccc(Cl)cc3)c2)C(F)(F)F)cc1 (centres unmarked) [Compound 44, 1,1,1-Trifluoro-2-chloro-2-(4-ethoxyphenyl)-3-(3-(4-chlorophenoxy)-4-fluorobenzyloxy)propane]
Heliothis virescens
  mortality at 500 ppm: 80 to 100%
Myzus persicae
  mortality at 500 ppm: 80 to 100%
Diabrotica balteata
  mortality at 500 ppm: 50 to 79%
Tetranychus urticae
  mortality at 500 ppm: < 50%
Blattella germanica
  mortality at 500 ppm: 80 to 100%
Musca domestica [1]
  mortality at 500 ppm: 80 to 100%
Musca domestica [2]
  pest or weed control at 500 ppm: 80 to 100%
Nilaparvata lugens
  mortality at 500 ppm: 80 to 100%

## CCOc1ccc(C(Cl)(COCc2coc(Cc3ccccc3)c2)C(F)(F)F)cc1 (centres unmarked) [Compound 45, 1,1,1-Trifluoro-2-chloro-2-(4-ethoxyphenyl)-3-(5-benzyl-3-furanylmethyloxy)propane]
Heliothis virescens
  mortality at 250 ppm: < 50%
Myzus persicae
  mortality at 250 ppm: < 50%
Diabrotica balteata
  mortality at 250 ppm: < 50%
Tetranychus urticae
  mortality at 250 ppm: 50 to 79%
Blattella germanica
  mortality at 250 ppm: < 50%
Musca domestica [1]
  mortality at 250 ppm: < 50%
Musca domestica [2]
  pest or weed control at 250 ppm: 80 to 100%
Nilaparvata lugens
  mortality at 250 ppm: < 50%

## CCOc1ccc(C(Cl)(COCc2cccc(-c3ccccc3)c2C)C(F)(F)F)cc1 (centres unmarked) [Compound 46, 1,1,1-Trifluoro-2-chloro-2-(4-ethoxyphenyl)-3-(2-methyl-3-phenylbenzyloxy)propane]
Heliothis virescens
  mortality at 500 ppm: < 50%
Myzus persicae
  mortality at 500 ppm: < 50%
Diabrotica balteata
  mortality at 500 ppm: < 50%
Tetranychus urticae
  mortality at 500 ppm: < 50%
Blattella germanica
  mortality at 500 ppm: < 50%
Musca domestica [1]
  mortality at 500 ppm: < 50%
Musca domestica [2]
  pest or weed control at 500 ppm: 80 to 100%
Nilaparvata lugens
  mortality at 500 ppm: < 50%

## Fc1ccc(COCC(Cl)(c2ccc(Cl)cc2)C(F)(F)F)cc1Oc1ccccc1 (centres unmarked) [Compound 50, 1,1,1-Trifluoro-2-chloro-2-(4-chlorophenyl)-3-(3-phenoxy-4-fluorobenzyloxy)propane]
Heliothis virescens
  mortality at 500 ppm: 80 to 100%
Myzus persicae
  mortality at 500 ppm: 80 to 100%
Diabrotica balteata
  mortality at 500 ppm: 80 to 100%
Tetranychus urticae
  mortality at 500 ppm: < 50%
Blattella germanica
  mortality at 500 ppm: < 50%
Musca domestica [1]
  mortality at 500 ppm: 80 to 100%
Musca domestica [2]
  pest or weed control at 500 ppm: 80 to 100%
Nilaparvata lugens
  mortality at 500 ppm: 80 to 100%

## Fc1ccc(COCC(Cl)(c2ccc3c(c2)CCC3)C(F)(F)F)cc1Oc1ccccc1 (centres unmarked) [Compound 52, 1,1,1,-Trifluoro-2-chloro-2-(5-indanyl)-3-(3-phenoxy-4-fluorobenzyloxy)propane]
Heliothis virescens
  mortality at 500 ppm: 50 to 79%
Myzus persicae
  mortality at 500 ppm: < 50%
Diabrotica balteata
  mortality at 500 ppm: < 50%
Tetranychus urticae
  mortality at 500 ppm: < 50%
Blattella germanica
  mortality at 500 ppm: 80 to 100%
Musca domestica [1]
  mortality at 500 ppm: 50 to 79%
Musca domestica [2]
  pest or weed control at 500 ppm: 80 to 100%
Nilaparvata lugens
  mortality at 500 ppm: < 50%

## CCCc1ccc(C(Cl)(COCc2ccc(F)c(Oc3ccccc3)c2)C(F)(F)F)cc1 (centres unmarked) [Compound 53, 1,1,1-Trifluoro-2-chloro-2-(4-n-propylphenyl)-3-(3-phenoxy-4-fluorobenzyloxy)propane]
Heliothis virescens
  mortality at 500 ppm: 80 to 100%
Myzus persicae
  mortality at 500 ppm: 80 to 100%
Diabrotica balteata
  mortality at 500 ppm: 80 to 100%
Tetranychus urticae
  mortality at 500 ppm: 80 to 100%
Blattella germanica
  mortality at 500 ppm: 80 to 100%
Musca domestica [1]
  mortality at 500 ppm: 80 to 100%
Musca domestica [2]
  pest or weed control at 500 ppm: 80 to 100%
Nilaparvata lugens
  mortality at 500 ppm: 80 to 100%

## FC(F)(F)Oc1ccc(C(Cl)(COCc2cccc(Oc3ccccc3)c2)C(F)(F)F)cc1 (centres unmarked) [Compound 59, 1,1,1-Trifluoro-2-chloro-2-(4-trifluoromethoxyphenyl)-3-(3-phenoxybenzyloxy)propane]
Heliothis virescens
  mortality at 100 ppm: 80 to 100%
Myzus persicae
  mortality at 100 ppm: < 50%
Diabrotica balteata
  mortality at 100 ppm: 80 to 100%
Tetranychus urticae
  mortality at 100 ppm: 80 to 100%
Blattella germanica
  mortality at 100 ppm: 80 to 100%
Musca domestica [1]
  mortality at 100 ppm: 80 to 100%
Musca domestica [2]
  pest or weed control at 100 ppm: 80 to 100%
Nilaparvata lugens
  mortality at 100 ppm: 80 to 100%

## CCOc1ccc(C(F)(COCc2cccc(Oc3ccc(Cl)cc3)c2)C(F)(F)F)cc1 (centres unmarked) [Compound 79, 1,1,1,2-Tetrafluoro-2-(4-ethoxyphenyl)-3-(3-(4-chlorophenoxy)benzyloxy)propane]
Heliothis virescens
  mortality at 250 ppm: 80 to 100%
Myzus persicae
  mortality at 250 ppm: < 50%
Diabrotica balteata
  mortality at 250 ppm: < 50%
Tetranychus urticae
  mortality at 250 ppm: < 50%
Blattella germanica
  mortality at 250 ppm: 80 to 100%
Musca domestica [1]
  mortality at 250 ppm: 80 to 100%
Musca domestica [2]
  pest or weed control at 250 ppm: 80 to 100%
Nilaparvata lugens
  mortality at 250 ppm: 80 to 100%

## CCOc1ccc(C(F)(COCc2cccc(-c3ccccc3)c2C)C(F)(F)F)cc1 (centres unmarked) [Compound 80, 1,1,1,2-Tetrafluoro-2-(4-ethoxyphenyl)-3-(2-methyl-3-phenylbenzyloxy)propane]
Heliothis virescens
  mortality at 500 ppm: < 50%
Myzus persicae
  mortality at 500 ppm: 80 to 100%
Diabrotica balteata
  mortality at 500 ppm: 80 to 100%
Tetranychus urticae
  mortality at 500 ppm: < 50%
Blattella germanica
  mortality at 500 ppm: 80 to 100%
Musca domestica [1]
  mortality at 500 ppm: 80 to 100%
Musca domestica [2]
  pest or weed control at 500 ppm: 80 to 100%
Nilaparvata lugens
  mortality at 500 ppm: 80 to 100%

## FC(F)(F)Oc1ccc(C(F)(COCc2cccc(Oc3ccccc3)c2)C(F)(F)F)cc1 (centres unmarked) [Compound 82, 1,1,1,2-Tetrafluoro-2-(4-trifluoromethoxyphenyl)-3-(3-phenoxybenzyloxy)propane]
Heliothis virescens
  mortality at 500 ppm: 80 to 100%
Myzus persicae
  mortality at 500 ppm: 80 to 100%
Diabrotica balteata
  mortality at 500 ppm: 80 to 100%
Tetranychus urticae
  mortality at 500 ppm: < 50%
Blattella germanica
  mortality at 500 ppm: 80 to 100%
Musca domestica [1]
  mortality at 500 ppm: 80 to 100%
Musca domestica [2]
  pest or weed control at 500 ppm: 80 to 100%
Nilaparvata lugens
  mortality at 500 ppm: < 50%

## CCOc1ccc(C(O)(COCc2cccc(Oc3ccccc3)c2)C(F)(F)F)cc1 (centres unmarked) [Compound 112, 1,1,1-trifluoro-2-(4-ethoxyphenyl)-3-(3-phenoxybenzyloxy)propan-2-ol]
Heliothis virescens
  mortality at 250 ppm: < 50%
Myzus persicae
  mortality at 250 ppm: < 50%
Diabrotica balteata
  mortality at 250 ppm: 80 to 100%
Tetranychus urticae
  mortality at 250 ppm: < 50%
Blattella germanica
  mortality at 250 ppm: < 50%
Musca domestica [1]
  mortality at 250 ppm: < 50%
Musca domestica [2]
  pest or weed control at 250 ppm: 50 to 79%
Nilaparvata lugens
  mortality at 250 ppm: < 50%

## CCOc1ccc(C(O)(COCc2ccc(F)c(Oc3ccc(Cl)cc3)c2)C(F)(F)F)cc1 (centres unmarked) [Compound 117, 1,1,1-Trifluoro-2-(4-ethoxyphenyl)-3-(3-(4-chlorophenoxy)-4-fluorobenzyloxy)propan-2-ol]
Heliothis virescens
  mortality at 500 ppm: < 50%
Myzus persicae
  mortality at 500 ppm: < 50%
Diabrotica balteata
  mortality at 500 ppm: < 50%
Tetranychus urticae
  mortality at 500 ppm: < 50%
Blattella germanica
  mortality at 500 ppm: < 50%
Musca domestica [1]
  mortality at 500 ppm: 50 to 79%
Musca domestica [2]
  pest or weed control at 500 ppm: 80 to 100%
Nilaparvata lugens
  mortality at 500 ppm: < 50%

## OC(COCc1ccc(F)c(Oc2ccccc2)c1)(c1ccc2c(c1)CCC2)C(F)(F)F (centres unmarked) [Compound 124, 1,1,1-Trifluoro-2-(5-indanyl)-3-(3-phenoxy-4-fluorobenzyloxy)propan-2-ol]
Heliothis virescens
  mortality at 500 ppm: < 50%
Myzus persicae
  mortality at 500 ppm: < 50%
Diabrotica balteata
  mortality at 500 ppm: < 50%
Tetranychus urticae
  mortality at 500 ppm: 80 to 100%
Blattella germanica
  mortality at 500 ppm: < 50%
Musca domestica [1]
  mortality at 500 ppm: < 50%
Musca domestica [2]
  pest or weed control at 500 ppm: < 50%
Nilaparvata lugens
  mortality at 500 ppm: < 50%
